Five compounds from patent publication US12281149B2, “Modulators of G-protein coupled receptors” (priority 2021, dated 2025) can be followed below.

*1 amine or outer side, *2 acyl side, *3 side chain or, on linkers, in order; H or OH if unused. Where a SMILES comes first, the peptide text is derived from it. Side-chain parts run from the residue outwards. [ ]: non-standard residue; d: D form. The star is where a group is joined. C20 diacid = O=C(O)CCCCCCCCCCCCCCCCCCC(=O)*; X56 = CC(C)(C(=O)*)c1cc(F)cc(C(N)=O)c1; γGlu = O=C(O)[C@H](CCC(=O)[*:2])N[*:1]; X54 = Cc1cn(C(C)(C)C(=O)*)nc1C(F)(F)F; X82 = CC(C)(C(=O)*)n1cc(N)cn1; AEEA = NCCOCCOCC(=O)O; Aib = CC(C)(N)C(=O)O; βAla = NCCC(=O)O

What all share (assay type): cell-based
Test [1] deals with T1, GLP-1 receptor (Homo sapiens, UniProt P43220). In words: HitHunter cAMP assay, GLP-1 receptor. The following applies: for EC50: CHO cells stably expressing human GLP-1 receptor, cAMP accumulation, 30 min, read-out: EC50 GLP-1R; for Emax: CHO cells, cAMP, normalized to maximum signal from GLP-1 (high) and DMSO (low), read-out: Emax GLP-1R.
T1 sequence (P43220 24-463): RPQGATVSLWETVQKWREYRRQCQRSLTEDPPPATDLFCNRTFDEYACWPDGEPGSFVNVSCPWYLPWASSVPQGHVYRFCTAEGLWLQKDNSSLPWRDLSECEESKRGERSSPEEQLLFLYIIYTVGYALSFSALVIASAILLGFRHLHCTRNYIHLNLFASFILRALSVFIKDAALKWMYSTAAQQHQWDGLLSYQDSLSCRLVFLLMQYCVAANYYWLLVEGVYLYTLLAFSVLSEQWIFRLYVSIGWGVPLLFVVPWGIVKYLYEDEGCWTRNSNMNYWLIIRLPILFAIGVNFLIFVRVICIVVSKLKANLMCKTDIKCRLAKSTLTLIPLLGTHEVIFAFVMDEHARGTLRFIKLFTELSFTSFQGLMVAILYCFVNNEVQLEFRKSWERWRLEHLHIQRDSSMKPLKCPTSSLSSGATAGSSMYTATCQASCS
The target in test [2] is T2, GIP receptor (Homo sapiens, UniProt P48546).
T2 sequence (P48546 22-466): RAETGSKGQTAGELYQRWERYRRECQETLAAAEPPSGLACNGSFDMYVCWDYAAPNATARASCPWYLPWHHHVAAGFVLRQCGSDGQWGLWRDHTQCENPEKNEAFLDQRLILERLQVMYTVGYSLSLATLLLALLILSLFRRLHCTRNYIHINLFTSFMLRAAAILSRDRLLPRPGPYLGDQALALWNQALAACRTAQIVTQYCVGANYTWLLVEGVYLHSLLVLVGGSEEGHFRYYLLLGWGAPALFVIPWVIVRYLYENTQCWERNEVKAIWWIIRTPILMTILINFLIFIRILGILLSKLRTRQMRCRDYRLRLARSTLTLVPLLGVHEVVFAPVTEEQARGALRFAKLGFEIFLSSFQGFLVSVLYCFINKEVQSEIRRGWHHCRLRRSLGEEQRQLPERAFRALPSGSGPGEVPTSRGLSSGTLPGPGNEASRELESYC
In words: PathHunter β-arrestin assay, GIP receptor. Further details: host or cells: PathHunter CHO-K1 GIPR β-Arrestin Cell Line. The following applies: β-arrestin-2 recruitment, PathHunter CHO-K1 GIPR β-Arrestin Cell Line, 90 min at 37° C.; normalized to GIP; read-out: GIPR β Arrestin EC50. (Recruitment of arrestin is a read-out of receptor activation apart from second messengers.)

The target of test [3] is T1, GLP-1 receptor. In words: PathHunter β-arrestin assay, GLP-1 receptor. Further details: host or cells: PathHunter CHO-K1 GLP1R β-Arrestin Cell Line. The following applies: β-arrestin-2 recruitment, PathHunter CHO-K1 GLP1R β-Arrestin Cell Line, 90 min at 37° C.; normalized to GLP-1; read-out: GLP-1R β Arrestin EC50.
In test [4] the target is T2, GIP receptor. In words: HitHunter cAMP assay, GIP receptor. The following applies: for EC50: CHO cells stably expressing GIP receptor, cAMP accumulation, 30 min, read-out: EC50 GIP-1R; for Emax: CHO cells, cAMP, normalized to maximum signal from GIP (high) and DMSO (low), read-out: Emax GIP-1R. A general note: cAMP levels reflect the balance of adenylyl cyclase and phosphodiesterase activity.

A word on the EC50: it is the concentration giving half of the maximal effect. One may read the Emax as the maximal effect, on the per cent scale that the assay sets. On to `CC[C@H](C)[C@H](NC(=O)[C@H](CO)NC(=O)[C@H](Cc1ccc(O)cc1)NC(=O)[C@H](CC(=O)O)NC(=O)[C@H](CO)NC(=O)[C@@H](NC(=O)[C@H](Cc1ccccc1)NC(=O)[C@@H](NC(=O)CNC(=O)[C@H](CCC(=O)O)NC(=O)CCNC(=O)C1(c2ccc(Cl)cc2)CCCC1)[C@@H](C)O)[C@@H](C)O)C(=O)N[C@@H](Cc1ccc(O)cc1)C(=O)N[C@@H](CC(C)C)C(=O)N[C@@H](CC(=O)O)C(=O)N[C@@H](CCCCN)C(=O)N[C@@H](CCC(N)=O)C(=O)N[C@@H](C)C(=O)N[C@@H](C)C(=O)NC(C)(C)C(=O)N[C@@H](CCC(=O)O)C(=O)N[C@@H](Cc1ccccc1)C(=O)N[C@H](C(=O)N[C@@H](CC(N)=O)C(=O)N[C@@H](Cc1c[nH]c2ccccc12)C(=O)N[C@@H](CC(C)C)C(=O)N[C@@H](CC(C)C)C(=O)N[C@@H](C)C(=O)NCC(=O)NCC(=O)N1CCC[C@H]1C(=O)N[C@@H](CO)C(=O)N[C@@H](CO)C(=O)NCC(=O)N[C@@H](C)C(=O)N1CCC[C@H]1C(=O)N1CCC[C@H]1C(=O)N1CCC[C@H]1C(=O)N[C@@H](CO)C(=O)N[C@@H](CCCCNC(=O)COCCOCCNC(=O)COCCOCCNC(=O)CC[C@H](NC(=O)CCCCCCCCCCCCCCCCCCC(=O)O)C(=O)O)C(N)=O)C(C)C` [Compound 155], for which the EC50 at GLP-1 receptor [1] was 1 to 10 nM; on GIP receptor [2] it was more than 1000 nM; on GLP-1 receptor [3] it was more than 1000 nM; at GIP receptor [4] it was 10 to 100 nM. For the same compound, the Emax on GLP-1 receptor [1] turned out to be 101%; at GIP receptor [4] it was 104%.

In the case of `CC[C@H](C)[C@H](NC(=O)[C@H](CO)NC(=O)[C@H](Cc1ccc(O)cc1)NC(=O)[C@H](CC(=O)O)NC(=O)[C@H](CO)NC(=O)[C@@H](NC(=O)[C@H](Cc1ccccc1)NC(=O)[C@@H](NC(=O)CNC(=O)[C@H](CCC(=O)O)NC(=O)CCNC(=O)C1(c2ccccc2)CCC(=O)NC1)[C@@H](C)O)[C@@H](C)O)C(=O)N[C@@H](Cc1ccc(O)cc1)C(=O)N[C@@H](CC(C)C)C(=O)N[C@@H](CC(=O)O)C(=O)N[C@@H](CCCCN)C(=O)N[C@@H](CCC(N)=O)C(=O)N[C@@H](C)C(=O)N[C@@H](C)C(=O)NC(C)(C)C(=O)N[C@@H](CCC(=O)O)C(=O)N[C@@H](Cc1ccccc1)C(=O)N[C@H](C(=O)N[C@@H](CC(N)=O)C(=O)N[C@@H](Cc1c[nH]c2ccccc12)C(=O)N[C@@H](CC(C)C)C(=O)N[C@@H](CC(C)C)C(=O)N[C@@H](C)C(=O)NCC(=O)NCC(=O)N1CCC[C@H]1C(=O)N[C@@H](CO)C(=O)N[C@@H](CO)C(=O)NCC(=O)N[C@@H](C)C(=O)N1CCC[C@H]1C(=O)N1CCC[C@H]1C(=O)N1CCC[C@H]1C(=O)N[C@@H](CO)C(=O)N[C@@H](CCCCNC(=O)COCCOCCNC(=O)COCCOCCNC(=O)CC[C@H](NC(=O)CCCCCCCCCCCCCCCCCCC(=O)O)C(=O)O)C(N)=O)C(C)C` (stereo partly drawn) [Compound 156], the EC50 on GLP-1 receptor [1] was 1 to 10 nM; on GIP receptor [2], more than 1000 nM; on GLP-1 receptor [3], more than 1000 nM; on GIP receptor [4], 1 to 10 nM. Moreover, the Emax at GLP-1 receptor [1] and on GIP receptor [4] was 95% in each case.

In the case of `CC[C@H](C)[C@H](NC(=O)[C@H](CC(C)C)NC(=O)[C@H](Cc1c[nH]c2ccccc12)NC(=O)[C@H](CCC(N)=O)NC(=O)[C@@H](NC(=O)[C@H](Cc1ccccc1)NC(=O)[C@H](C)NC(=O)[C@H](CCCCNC(=O)COCCOCCNC(=O)COCCOCCNC(=O)CC[C@H](NC(=O)CCCCCCCCCCCCCCCCCCC(=O)O)C(=O)O)NC(=O)[C@H](CCC(N)=O)NC(=O)[C@H](C)NC(=O)[C@@H](NC(=O)[C@H](CCCCN)NC(=O)[C@H](CC(=O)O)NC(=O)[C@H](CC(C)C)NC(=O)C(C)(C)NC(=O)[C@@H](NC(=O)[C@H](CO)NC(=O)[C@H](Cc1ccc(O)cc1)NC(=O)[C@H](CC(=O)O)NC(=O)[C@H](CO)NC(=O)[C@@H](NC(=O)[C@H](Cc1ccccc1)NC(=O)[C@@H](NC(=O)CNC(=O)[C@H](CCC(=O)O)NC(=O)CCNC(=O)C(C)(C)n1cc(N)cn1)[C@@H](C)O)[C@@H](C)O)[C@@H](C)CC)[C@@H](C)CC)C(C)C)C(=O)N[C@@H](C)C(=O)NCC(=O)NCC(=O)N1CCC[C@H]1C(=O)N[C@@H](CO)C(=O)N[C@@H](CO)C(=O)NCC(=O)N[C@@H](C)C(=O)N1CCC[C@H]1C(=O)N1CCC[C@H]1C(=O)N1CCC[C@H]1C(=O)N[C@@H](CO)C(N)=O` [Compound 157] ({X82-βAla}-EGTFTSDYSI[Aib]LDKIAQK([AEEA-AEEA-γGlu-C20 diacid])AFVQWLIAGGPSSGAPPPS-NH2), the EC50 is 0.1 to 1 nM on GLP-1 receptor [1], more than 1000 nM at GIP receptor [2], more than 1000 nM at GLP-1 receptor [3] and 10 to 100 nM on GIP receptor [4]. Further, the Emax at GLP-1 receptor [1] amounted to 100%; at GIP receptor [4], 106%.

Turning to `CC[C@H](C)[C@H](NC(=O)[C@H](CC(C)C)NC(=O)[C@H](Cc1c[nH]c2ccccc12)NC(=O)[C@H](CCC(N)=O)NC(=O)[C@@H](NC(=O)[C@H](Cc1ccccc1)NC(=O)[C@H](C)NC(=O)[C@H](CCCCNC(=O)COCCOCCNC(=O)COCCOCCNC(=O)CC[C@H](NC(=O)CCCCCCCCCCCCCCCCCCC(=O)O)C(=O)O)NC(=O)[C@H](CCC(N)=O)NC(=O)[C@H](C)NC(=O)[C@@H](NC(=O)[C@H](CCCCN)NC(=O)[C@H](CC(=O)O)NC(=O)[C@H](CC(C)C)NC(=O)C(C)(C)NC(=O)[C@@H](NC(=O)[C@H](CO)NC(=O)[C@H](Cc1ccc(O)cc1)NC(=O)[C@H](CC(=O)O)NC(=O)[C@H](CO)NC(=O)[C@@H](NC(=O)[C@H](Cc1ccccc1)NC(=O)[C@@H](NC(=O)CNC(=O)[C@H](CCC(=O)O)NC(=O)CCNC(=O)C(C)(C)n1cc(C)c(C(F)(F)F)n1)[C@@H](C)O)[C@@H](C)O)[C@@H](C)CC)[C@@H](C)CC)C(C)C)C(=O)N[C@@H](C)C(=O)NCC(=O)NCC(=O)N1CCC[C@H]1C(=O)N[C@@H](CO)C(=O)N[C@@H](CO)C(=O)NCC(=O)N[C@@H](C)C(=O)N1CCC[C@H]1C(=O)N1CCC[C@H]1C(=O)N1CCC[C@H]1C(=O)N[C@@H](CO)C(N)=O` [Compound 158] ({X54-βAla}-EGTFTSDYSI[Aib]LDKIAQK([AEEA-AEEA-γGlu-C20 diacid])AFVQWLIAGGPSSGAPPPS-NH2), the EC50 at GLP-1 receptor [1] is 0.1 to 1 nM; on GIP receptor [2] it was more than 1000 nM; at GLP-1 receptor [3], more than 1000 nM; at GIP receptor [4], 10 to 100 nM. The results for the Emax on GLP-1 receptor [1] and on GIP receptor [4] were 97% and 118%, respectively.

On to `CC[C@H](C)[C@H](NC(=O)[C@H](CC(C)C)NC(=O)[C@H](Cc1c[nH]c2ccccc12)NC(=O)[C@H](CCC(N)=O)NC(=O)[C@@H](NC(=O)[C@H](Cc1ccccc1)NC(=O)[C@H](C)NC(=O)[C@H](CCCCNC(=O)COCCOCCNC(=O)COCCOCCNC(=O)CC[C@H](NC(=O)CCCCCCCCCCCCCCCCCCC(=O)O)C(=O)O)NC(=O)[C@H](CCC(N)=O)NC(=O)[C@H](C)NC(=O)[C@@H](NC(=O)[C@H](CCCCN)NC(=O)[C@H](CC(=O)O)NC(=O)[C@H](CC(C)C)NC(=O)C(C)(C)NC(=O)[C@@H](NC(=O)[C@H](CO)NC(=O)[C@H](Cc1ccc(O)cc1)NC(=O)[C@H](CC(=O)O)NC(=O)[C@H](CO)NC(=O)[C@@H](NC(=O)[C@H](Cc1ccccc1)NC(=O)[C@@H](NC(=O)CNC(=O)[C@H](CCC(=O)O)NC(=O)CCNC(=O)C(C)(C)c1cc(F)cc(C(N)=O)c1)[C@@H](C)O)[C@@H](C)O)[C@@H](C)CC)[C@@H](C)CC)C(C)C)C(=O)N[C@@H](C)C(=O)NCC(=O)NCC(=O)N1CCC[C@H]1C(=O)N[C@@H](CO)C(=O)N[C@@H](CO)C(=O)NCC(=O)N[C@@H](C)C(=O)N1CCC[C@H]1C(=O)N1CCC[C@H]1C(=O)N1CCC[C@H]1C(=O)N[C@@H](CO)C(N)=O` [Compound 159] ({X56-βAla}-EGTFTSDYSI[Aib]LDKIAQK([AEEA-AEEA-γGlu-C20 diacid])AFVQWLIAGGPSSGAPPPS-NH2), for which the EC50 on GLP-1 receptor [1] was 1 to 10 nM; at GIP receptor [2] it was more than 1000 nM; on GLP-1 receptor [3], more than 1000 nM; at GIP receptor [4], 10 to 100 nM. The results for the Emax at GLP-1 receptor [1] and on GIP receptor [4] were 100% and 104%, respectively.
